Reference: patent US20130102009A1, “SIRTUIN ACTIVATORS AND ACTIVATION ASSAYS” (priority 2010, published 2013)
pKd: −log10 of the molar value.

What was measured:
[1] = molecular target: Ac-Arg-His-Lys-Lys^Ac-Trp-NH2; assay: ITC binding of STACs to Ac-Arg-His-Lys-Lys^Ac-X, X=TrpNH2; settings: 10% DMSO for SRT1720, SRT2183 and 10, no cosolvent for SRT1460
Experimental: (§1) ITC experiments were performed using either a VP-ITC system or iTC200 system (MicroCal) at 26° C. in a buffer composed of 137 mM NaCl, 2.7 mM KCl, 1 mM MgCl2, 2 mM TCEP, 5% (v/v) glycerol and 50 mM HEPES-NaOH, pH 7.3. SIRT1(183-664) was purified and dialyzed against the buffer, centrifuged, and degassed before the experiment. The peptide and compounds were dissolved in the final dialysis buffer and their pH values were adjusted to match that of the protein solution. […] To characterize this interaction using the iTC200 system, 1 mM TAMRA-peptide was injected in 20 aliquots of 2 μL, (except the first injection, which was 0.5 μL) into a 0.202 mL sample cell containing 100 μM STAC. For STACs with poor solubility, the concentrations were adjusted accordingly. […] In all cases, data was corrected for the heat of dilution and fitted using a nonlinear least-squares routine using a single-site binding model with Origin for ITC v7.0383 (Microcal) with the stoichiometry (n), the enthalpy of the reaction (ΔH) and the association constant (Ka) calculated. Table 2 summarizes Kd values for the binding of STACs to […]. Note that except for SRT1460, the solubility of the compounds required that these ITC experiments be done in solutions containing 10% DMSO.

[2] = molecular target: T1, SIRT1 (Homo sapiens, UniProt Q96EB6); assay: Continuous PNC1-GDH-coupled assay of SIRT1-catalyzed deacetylation of Ac-Arg-His-Lys-Lys^Ac-X with STACs; format: biochemical; settings: [SRT]o = 5 μM, [peptide]o ≦ Km, [NAD+] = 70 μM; for Relative Velocity, X=AMC: Ac-Arg-His-Lys-Lys^Ac-AMC; for Relative Velocity, X=Ala-NH2: Ac-Arg-His-Lys-Lys^Ac-Ala-NH2; for Relative Velocity, X=NH2: Ac-Arg-His-Lys-Lys^Ac-NH2; for Relative Velocity, X=Phe-NH2: Ac-Arg-His-Lys-Lys^Ac-Phe-NH2
T1 sequence (Q96EB6 1-747): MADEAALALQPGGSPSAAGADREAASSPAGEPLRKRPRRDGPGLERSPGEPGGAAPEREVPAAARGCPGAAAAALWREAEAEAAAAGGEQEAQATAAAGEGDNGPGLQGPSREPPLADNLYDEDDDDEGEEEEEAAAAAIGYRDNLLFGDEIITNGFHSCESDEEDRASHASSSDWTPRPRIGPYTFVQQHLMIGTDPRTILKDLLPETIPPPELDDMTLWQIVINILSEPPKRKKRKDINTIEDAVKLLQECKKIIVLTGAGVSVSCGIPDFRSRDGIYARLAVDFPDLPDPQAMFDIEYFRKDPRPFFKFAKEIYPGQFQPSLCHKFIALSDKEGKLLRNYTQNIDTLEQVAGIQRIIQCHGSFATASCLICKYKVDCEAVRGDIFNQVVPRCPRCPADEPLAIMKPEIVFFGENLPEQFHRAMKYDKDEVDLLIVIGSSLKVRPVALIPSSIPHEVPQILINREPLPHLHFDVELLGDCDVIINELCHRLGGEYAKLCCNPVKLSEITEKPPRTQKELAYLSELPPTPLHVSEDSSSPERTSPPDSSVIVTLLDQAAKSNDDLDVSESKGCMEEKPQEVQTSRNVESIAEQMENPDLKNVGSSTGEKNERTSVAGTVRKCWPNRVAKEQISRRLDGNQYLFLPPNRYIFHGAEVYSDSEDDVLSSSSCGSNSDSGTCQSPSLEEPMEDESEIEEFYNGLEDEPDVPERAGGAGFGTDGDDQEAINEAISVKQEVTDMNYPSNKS
Experimental: Bovine glutamate dehydrogenase (GDH), α-ketoglutarate, NADH and NAD^+ were from Sigma Chemical Company. […] The nicotinamidase PNC1 was prepared as described by Denu and colleagues (Smith et al. (2009) Anal Biochem 394, 101-109). To determine the interaction of STACs with SIRT1 two kinetic methods were employed. […] (2007) Nature 450, 712-716). The other, used with peptides of general structure […], used a continuous, enzyme-coupled method reported previously (Smith et al. (2009) Anal Biochem 394, 101-109), in which the SRT1 product nicotinamide is first converted into nicotinic acid and ammonia by the action of PNC1, and the ammonia then used by GDH to convert α-ketoglutarate into glutamate. This reaction occurs with oxidation of NADH to NAD^+ which is accompanied by a change in absorbance at 340 nm (Δε340=-6,200 M^-1 cm^-1). The kinetic experiments used to characterize activators were run on a Perkin Elmer Lambda 25 spectrophotometer equipped with a water-jacketed, eight-cell changer maintained at 25° C. In a typical kinetic experiment, all components of the reaction solution except SIRT1 were added to a 1 mL cuvette and allowed to reach thermal equilibrium. Final concentrations of the coupling system components were: 1 μM PNC1, 0.23 mM NADH, 3.4 mM α-ketoglutarate, and 20 U/mL bovine GDH. This solution also contained peptide substrate, NAD^.0., and activator, at concentrations indicated in the text. The final DMSO concentration was kept constant at 1%, and the buffer used in these experiments was 50 mM HEPES, 150 mM NaCl, pH 7.5. While the system was reaching thermal equilibrium, the absorbance was monitored to provide an accurate estimate of the background rate, which was subtracted from the reaction rate after the addition of SIRT1. Activator titrations were plotted as relative velocity (i.e., the ratio of vx, velocity in the presence of activator X, to vo, velocity in the absence of activator) vs. [X]o, initial concentration of activator, and fit by nonlinear least-squares to the mechanism-independent expression for enzyme activation of […] the maximum relative velocity (i.e., vx/vo at infinite [X]o) and EC50 is the activator concentration at which vx/vo=(RVmax-1)/2. EC50 is a function of the kinetic mechanisms of both catalysis and activation, and the concentrations of substrates.

[3] = molecular target: Ac-Arg-His-Lys-Lys^Ac-NH2; assay: ITC binding of STACs to Ac-Arg-His-Lys-Lys^Ac-X, X=NH2; settings: 10% DMSO for SRT1720, SRT2183 and 10, no cosolvent for SRT1460
Experimental: as §1

[4] = molecular target: Ac-Arg-His-Lys-Lys^Ac-Phe-NH2; assay: ITC binding of STACs to Ac-Arg-His-Lys-Lys^Ac-X, X=PheNH2; settings: 10% DMSO for SRT1720, SRT2183 and 10, no cosolvent for SRT1460
Experimental: as §1

[5] = molecular target: Ac-Arg-His-Lys-Lys^Ac-AMC; assay: ITC binding of STACs to Ac-Arg-His-Lys-Lys^Ac-X, X=AMC; settings: 10% DMSO for SRT1720, SRT2183 and 10, no cosolvent for SRT1460
Experimental: as §1

| Structure (SMILES) | pKd [1] | Kd for binding to Ac-Arg-His-Lys-Lys^Ac-X, X=TrpNH2 [1] | Relative Velocity, X=AMC [2] | Relative Velocity, X=Ala-NH2 [2] | Relative Velocity, X=NH2 [2] | Relative Velocity, X=Phe-NH2 [2] | pKd [3] | pKd [4] | pKd [5] | Relative Velocity, X=Trp-NH2 ([2]; Ac-Arg-His-Lys-Lys^Ac-Trp-NH2) |
| --- | --- | --- | --- | --- | --- | --- | --- | --- | --- | --- |
| O=C(Nc1ccccc1-c1cn2c(CN3CCNCC3)csc2n1)c1cnc2ccccc2n1 [SRT1720] | 3.82 | binds | 1.0 | 0.9 | 1.1 | 0.9 | < 3.30 | < 3.30 | < 3.30 |  |
| O=C(Nc1ccccc1-c1cn2c(CN3CC[C@@H](O)C3)csc2n1)c1ccc2ccccc2c1 [SRT2183] | < 4.30 |  | 1.1 | 0.8 | 1.2 | 1.0 | < 4.30 | < 4.30 | < 4.30 | 1.0 |
